Consider four molecules from paper PMC9421654, “Discovery of Substituted Di(pyridin-2-yl)-1,2,4-thiadiazol-5-amines as Novel Macrofilaricidal Compounds for the Treatment of Human Filarial Infections” (Journal of Medicinal Chemistry, 2022).

Broadly, the efflux ratio is a quotient of directional permeabilities that is used to spot active efflux. For orientation: Vd means the apparent volume that relates the amount in the body to the concentration in plasma or blood. A low value points to confinement near the circulation. Broadly, the clearance is the rate of elimination divided by the concentration. The low end stands for inefficient removal, the high end for efficient removal. As usually defined, the AUC(0-inf) is the area under the concentration-time curve extrapolated to infinity. A lower AUC(0-inf) goes with low exposure. In general, Cmax refers to the highest concentration seen after dosing. The Tmax is the time from dosing to the highest level. What is called bioavailability is the share of a dose that reaches the circulation, judged against a reference dose that is usually intravenous. Usually CC50 stands for the concentration at which the toxic effect on the cells reaches its halfway point. A word on the IC50: it is the midpoint of a concentration-inhibition curve. One may read the Papp A→B as the apparent permeability from the apical to the basolateral side of a cell layer. Higher therefore signals fast passage.

SMILES strings stand for the structures.

Series [1] in a line: in vitro. The note with it: human, Caco-2.
Series [2] can be described thus: in vivo. The note with it: dog. An excerpt:
IV formulation vehicle for rat: 15% DMA / 50%PEG / 35% D5W; for dog: 5% DMA /
PO formulation vehicle for mouse and rat: a suspension in 0.5% CMC / 0.25% Tween80, as a
suspension; for dog: a suspension in 0.5% methyl cellulose / 0.25% Tween80

Series [3] can be described thus: THLE-2 cytotoxicity assay (ATP). The note with it: human. The procedure, abridged:
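THLE-2 cells in supplemented LHC-8 medium were exposed for 24 or 72 h to final concentrations of 0.01–300 μM. Viability was read as ATP by CellTiter-Glo luminescence and normalized to DMSO vehicle. IC50 came from nonlinear regression of dose-response curves.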

In series [4] the target is CYP3A4 (Homo sapiens, UniProt P08684). The series can be described thus: Cytochrome P450 inhibition, 3A4. Format: in vitro ADME. The note with it: read-out: Cytochrome P450s IC50, 3A4.
Series [5] deals with T1, CYP1A2 (Homo sapiens, UniProt P05177).
T1 sequence (P05177 1-516): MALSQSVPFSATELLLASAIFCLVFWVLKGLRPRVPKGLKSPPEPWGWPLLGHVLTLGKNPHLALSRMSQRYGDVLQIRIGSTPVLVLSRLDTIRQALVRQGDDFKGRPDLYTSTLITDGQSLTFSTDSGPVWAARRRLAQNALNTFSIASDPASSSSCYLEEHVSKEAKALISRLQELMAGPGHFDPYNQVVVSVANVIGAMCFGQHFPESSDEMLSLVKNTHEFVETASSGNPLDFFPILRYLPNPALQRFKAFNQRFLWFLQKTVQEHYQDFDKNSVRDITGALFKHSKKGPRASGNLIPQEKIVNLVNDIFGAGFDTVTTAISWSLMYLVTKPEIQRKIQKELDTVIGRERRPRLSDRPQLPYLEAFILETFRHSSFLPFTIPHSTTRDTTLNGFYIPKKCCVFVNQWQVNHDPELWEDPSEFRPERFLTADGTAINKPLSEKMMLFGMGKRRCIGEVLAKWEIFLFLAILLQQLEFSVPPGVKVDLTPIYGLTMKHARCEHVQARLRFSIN
The series can be described thus: Cytochrome P450 inhibition, 1A2. Format: in vitro ADME. The note with it: read-out: Cytochrome P450s IC50, 1A2.

Series [6] deals with CYP2D6 (Homo sapiens, UniProt P10635). Description: Cytochrome P450 inhibition, 2D6. Format: in vitro ADME. The note with it: read-out: Cytochrome P450s IC50, 2D6.
Series [7] deals with CYP2C19 (Homo sapiens, UniProt P33261). Description: Cytochrome P450 inhibition, 2C19. The note with it: read-out: Cytochrome P450s IC50, 2C19. Format: in vitro ADME.
Series [8] has as its target T2, CYP2C8 (Homo sapiens, UniProt P10632).
T2 sequence (P10632 1-490): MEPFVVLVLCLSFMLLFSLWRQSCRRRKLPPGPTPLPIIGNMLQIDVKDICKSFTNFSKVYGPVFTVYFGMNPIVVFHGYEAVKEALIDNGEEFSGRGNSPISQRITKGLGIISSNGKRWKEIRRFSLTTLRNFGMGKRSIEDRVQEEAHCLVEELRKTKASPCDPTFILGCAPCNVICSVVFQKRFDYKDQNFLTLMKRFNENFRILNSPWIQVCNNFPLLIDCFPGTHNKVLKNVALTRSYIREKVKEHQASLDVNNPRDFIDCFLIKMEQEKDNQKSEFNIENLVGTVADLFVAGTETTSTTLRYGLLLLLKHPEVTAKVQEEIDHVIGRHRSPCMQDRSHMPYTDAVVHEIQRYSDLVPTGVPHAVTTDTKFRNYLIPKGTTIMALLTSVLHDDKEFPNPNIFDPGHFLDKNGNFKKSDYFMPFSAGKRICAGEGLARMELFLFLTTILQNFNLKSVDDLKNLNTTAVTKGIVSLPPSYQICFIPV
The series can be described thus: Cytochrome P450 inhibition, 2C8. Format: in vitro ADME. The note with it: read-out: Cytochrome P450s IC50, 2C8.

Series [9] has as its system CEREP receptor, ion channel, transporter panel. Description: Eurofins CEREP non-kinase panel, binding. The note with it: binding at 10 μM. The method, then: [36] Eurofins Cerep, Le Bois l’Evêque B.P. 30001, 86 600 Celle l’Evescault, France. Compound binding was calculated as a % inhibition of the binding of a radioactively labeled ligand specific for each target.
Series [10] is described as follows: Exploratory toxicological evaluation in vivo. An excerpt: Showing no in vitro safety concerns (Table 7), it was progressed into in vivo safety evaluation studies. […] Since the mechanism of action of this series of compounds is not known, the best approach was to design analogs that would limit exposure within the brain.
Series [11] deals with T3, P-gp (MDR1) (Homo sapiens, UniProt P08183).
T3 construct: expressed in transfected cells; host or cells: MDCK (Madin Darby canine kidney) cells
The series can be described thus: MDCK/MDR1 permeability and efflux. Format: in vitro ADME. The note with it: dog. An excerpt: Our approach was to target compounds with efflux ratio (ER) >2.5 in the MDCK cell line transfected with MDR1 (multidrug resistance-1 transfected Madin Darby canine kidney cell line). […] Our goal was to impart structural elements designed to impart Pgp recognition.

Series [12] has as its system TK6 cells. The series can be described thus: Micronucleus test. Format: cell-based. The note with it: presence and absence of rat liver S9.

Sequence of CYP2C19 (P33261 whole entry): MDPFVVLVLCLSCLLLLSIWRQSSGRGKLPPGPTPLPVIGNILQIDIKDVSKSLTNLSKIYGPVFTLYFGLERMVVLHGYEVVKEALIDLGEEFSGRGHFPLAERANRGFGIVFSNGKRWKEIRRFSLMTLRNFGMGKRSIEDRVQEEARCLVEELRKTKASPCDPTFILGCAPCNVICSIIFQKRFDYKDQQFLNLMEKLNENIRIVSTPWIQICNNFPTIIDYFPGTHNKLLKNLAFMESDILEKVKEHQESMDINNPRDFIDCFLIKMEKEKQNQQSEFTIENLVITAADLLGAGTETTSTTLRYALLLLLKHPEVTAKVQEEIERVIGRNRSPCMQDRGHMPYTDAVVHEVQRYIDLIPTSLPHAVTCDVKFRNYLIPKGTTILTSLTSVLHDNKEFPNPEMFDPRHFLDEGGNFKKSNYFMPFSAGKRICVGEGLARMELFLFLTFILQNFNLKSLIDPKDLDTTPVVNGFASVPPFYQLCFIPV
T3 sequence (P08183 whole entry): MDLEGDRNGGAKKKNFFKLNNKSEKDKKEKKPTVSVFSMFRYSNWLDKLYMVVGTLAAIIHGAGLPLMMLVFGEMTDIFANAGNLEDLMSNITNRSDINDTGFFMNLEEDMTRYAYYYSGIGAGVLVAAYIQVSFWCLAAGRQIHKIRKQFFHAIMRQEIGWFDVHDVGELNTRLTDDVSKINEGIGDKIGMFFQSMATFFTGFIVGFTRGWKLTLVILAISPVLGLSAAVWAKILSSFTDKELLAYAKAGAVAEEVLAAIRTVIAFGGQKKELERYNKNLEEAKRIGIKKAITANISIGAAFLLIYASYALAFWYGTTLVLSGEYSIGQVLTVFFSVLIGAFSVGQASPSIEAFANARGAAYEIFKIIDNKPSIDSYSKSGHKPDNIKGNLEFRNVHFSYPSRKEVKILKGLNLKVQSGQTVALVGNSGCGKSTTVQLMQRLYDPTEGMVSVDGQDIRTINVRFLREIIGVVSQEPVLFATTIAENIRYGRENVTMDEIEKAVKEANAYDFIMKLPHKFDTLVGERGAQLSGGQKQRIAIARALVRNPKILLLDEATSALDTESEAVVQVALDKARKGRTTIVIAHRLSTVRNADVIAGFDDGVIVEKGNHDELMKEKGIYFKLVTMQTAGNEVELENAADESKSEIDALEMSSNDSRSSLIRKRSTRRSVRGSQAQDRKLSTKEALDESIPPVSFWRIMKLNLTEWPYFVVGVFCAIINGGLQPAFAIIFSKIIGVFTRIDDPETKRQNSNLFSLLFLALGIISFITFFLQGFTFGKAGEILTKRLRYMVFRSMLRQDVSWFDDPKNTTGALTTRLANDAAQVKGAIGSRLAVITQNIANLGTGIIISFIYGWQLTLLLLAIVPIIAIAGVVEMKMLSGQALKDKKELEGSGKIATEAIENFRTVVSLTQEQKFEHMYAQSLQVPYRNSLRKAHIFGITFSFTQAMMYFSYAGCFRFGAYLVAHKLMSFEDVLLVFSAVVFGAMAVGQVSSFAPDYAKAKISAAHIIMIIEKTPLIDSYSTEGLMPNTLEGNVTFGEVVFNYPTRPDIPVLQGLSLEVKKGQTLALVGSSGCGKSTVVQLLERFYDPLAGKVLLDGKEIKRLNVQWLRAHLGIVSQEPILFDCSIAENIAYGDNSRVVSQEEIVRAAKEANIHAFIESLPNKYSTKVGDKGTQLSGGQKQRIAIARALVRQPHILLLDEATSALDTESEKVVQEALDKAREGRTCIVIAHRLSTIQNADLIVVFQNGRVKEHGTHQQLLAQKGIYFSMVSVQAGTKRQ
Sequence of CYP3A4 (P08684 whole entry): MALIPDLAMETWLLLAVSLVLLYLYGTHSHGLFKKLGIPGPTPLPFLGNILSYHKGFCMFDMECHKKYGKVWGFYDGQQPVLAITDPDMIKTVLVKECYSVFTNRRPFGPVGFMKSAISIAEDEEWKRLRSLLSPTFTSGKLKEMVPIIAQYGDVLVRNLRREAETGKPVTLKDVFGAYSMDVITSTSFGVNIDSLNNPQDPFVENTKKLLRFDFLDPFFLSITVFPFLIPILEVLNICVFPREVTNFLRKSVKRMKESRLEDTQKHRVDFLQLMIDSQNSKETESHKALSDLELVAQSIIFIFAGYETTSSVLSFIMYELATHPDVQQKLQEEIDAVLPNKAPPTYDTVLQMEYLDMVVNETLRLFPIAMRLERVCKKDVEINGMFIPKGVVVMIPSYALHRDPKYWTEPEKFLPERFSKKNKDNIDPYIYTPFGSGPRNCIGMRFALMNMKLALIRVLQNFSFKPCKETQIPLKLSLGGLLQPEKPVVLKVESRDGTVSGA
Sequence of CYP2D6 (P10635 whole entry): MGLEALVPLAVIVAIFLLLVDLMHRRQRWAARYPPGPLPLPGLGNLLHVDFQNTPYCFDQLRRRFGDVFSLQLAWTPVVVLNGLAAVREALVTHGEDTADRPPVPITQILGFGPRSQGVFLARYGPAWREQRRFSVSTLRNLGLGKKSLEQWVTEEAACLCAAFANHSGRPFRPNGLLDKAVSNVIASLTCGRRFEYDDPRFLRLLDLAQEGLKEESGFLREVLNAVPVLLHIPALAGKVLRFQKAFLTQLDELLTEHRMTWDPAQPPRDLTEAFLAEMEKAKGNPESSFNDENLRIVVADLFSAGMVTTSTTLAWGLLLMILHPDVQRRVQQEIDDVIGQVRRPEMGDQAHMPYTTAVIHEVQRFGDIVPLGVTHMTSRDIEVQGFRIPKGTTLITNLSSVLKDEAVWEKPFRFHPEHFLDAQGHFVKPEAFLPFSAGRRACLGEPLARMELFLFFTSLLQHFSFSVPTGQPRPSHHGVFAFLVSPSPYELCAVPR

For the molecule `Cc1cccnc1Nc1nc(-c2ccc(OC3CCN(C4CC4)CC3)cn2)ns1` [Compound 19, 3-[5-[(1-Cyclopropyl-4-piperidyl)oxy]-2-pyridyl]-N-(3-methyl-2-pyridyl)-1,2,4-thiadiazol-5-amine], the efflux ratio in [1] is 0.9.

In series [2] (iv, 2 mg/kg), `CC(C)Oc1ccc(-c2nsc(Nc3ncccc3N(C)C)n2)nc1` [Compound 31, N^2-(3-(5-Isopropoxypyridin-2-yl)-1,2,4-thiadiazol-5-yl)-N3,N3-dimethylpyridine-2,3-diamine] came in with a volume of distribution (Vd) of 3.08 ± 0.03 L/kg and a clearance of 18.8 ± 2.7 mL/min/kg. For the same molecule, in series [2] (po, 3 mg/kg), the AUC(0-inf) turned out to be 4.02 ± 1.03 µM·h, the Cmax was determined as 1410 ± 530 nM, the Tmax was 1.2 ± 0.8 h and the bioavailability worked out at 55 ± 21%. Besides, half-maximal cytotoxicity in series [3] (CC50) was put at 36 µM. Moreover, in series [4], the IC50 is 22 µM. Besides, the IC50 in [5] is above 30 µM. For the same molecule, the 50% inhibitory concentration (IC50) in series [6] was above 30 µM. The IC50 in [7] was determined as 20 µM. Also, the IC50 in series [8] was determined as 7.1 µM. For the same molecule, the “CEREP receptor, ion channel, transporter panel: targets bound / tested” value in [9] (targets with >70%) is on record as 5/76. In addition, the “exploratory toxicological evaluation, observations” value in series [10] is reported as “CNS (central nervous system)-related observations were noted”.

As for `CC(=O)N(C)c1cccnc1Nc1nc(-c2ccc(OC(C)C)cn2)ns1` [Compound 47, N-(2-((3-(5-Isopropoxypyridin-2-yl)-1,2,4-thiadiazol-5-yl)amino)pyridin-3-yl)-N-methylacetamide], the apical-to-basolateral permeability (Papp A→B) in series [11] was 3.9 ×10⁻⁶ cm/s. The molecule further yielded a CC50 in [3] of 106 µM. Besides, the half-inhibitory concentration (IC50) was above 30 µM in series [4]; above 30 µM in series [5]; 30 µM in series [6]; 29 µM in series [7]; above 30 µM in series [8]. The “CEREP receptor, ion channel, transporter panel: targets bound / tested” value in series [9] (targets with >50%) is 1/76. Moreover, the micronucleus result in series [12] was “negative”.

Take `CC(C)Oc1ccc(-c2nsc(Nc3ncccc3N(C)C(=O)C3CC3)n2)nc1` [Compound 50, N-(2-((3-(5-Isopropoxypyridin-2-yl)-1,2,4-thiadiazol-5-yl)amino)pyridin-3-yl)-N-methylcyclopropanecarboxamide]: the Papp A→B in series [11] came out at 19.3 ×10⁻⁶ cm/s.
